According to patent US20150297594A1, “Combination of a 6-oxo-1,6-dihydro-pyridazine derivative having anti-cancer activity with a MEK inhibitor” (MERCK PATENT GMBH, priority 2012, published 2015):
Values joined by “and” are separate entries in the source; they are usually repeats but may differ in a detail not shown here. Equal entries are not always repeated.

How the values were obtained:
[1] = tested on: patient derived pancreatic tumor fragment; experiment: 10 patient derived pancreatic tumor models in nude mice; assay type: in vivo, human
Method: Combination with MEK inhibitor N-((S)-2,3-dihydroxy-propyl)-3-(2-fluoro-4-iodo-phenylamino)-isonicotinamide in 10 patient derived pancreatic tumor models:
Method: Female NMRI nude mice (6-8 week old) where subcutaneously implanted with a patient derived pancreatic tumor fragment. Animals were divided into treatments groups (ten animals in one group) after the tumors were established. Respective groups were administered orally with the 3-(1-{3-[5-(1-methyl-piperidin-4-ylmethoxy)-pyrimidin-2-yl]-benzyl}-6-oxo -1,6-dihydro-pyridazin-3-yl)-benzonitrile hydrochloride hydrate (100 mg/kg) or N-((S)-2,3-dihydroxy-propyl)-3-(2-fluoro-4-iodo-phenylamino)-isonicotinamide (100 mg/kg, MTD) for 5 days on and 2 days off in monotherapy or in combination. At the end of treatment TC values were calculated and tumor regrowth was observed. Statistical analysis has been done with one way ANOVO. […] All treatments were well tolerated.

[2] = tested on: human KP-4 pancreatic tumor cells; experiment: human KP-4 pancreatic tumor xenograft model in nude mice; assay type: in vivo; settings: female BalBc nude mice, s.c. KP-4 tumors, 5 days on and 2 days off, end of treatment
Method: Method: Female BalBc nude mice (6-8 week old) where subcutaneously injected with human KP-4 pancreatic tumor cells and were divided into treatment groups (ten animals in one group) after the tumors were established.
Respective groups were administered orally with the 3-(1-{3-[5-(1-methyl-piperidin-4-ylmethoxy)-pyrimidin-2-yl]-benzyl}-6-oxo-1,6-dihydro-pyridazin -3-yl)-benzonitrile hydrochloride hydrate (100 mg/kg) or N-((S)-2,3-dihydroxy-propyl)-3-(2-fluoro-4-iodo-phenylamino)-isonicotinamide (50 mg/kg) for 5 days on and 2 days off in monotherapy or in combination. […] Statistical analysis has been done with one way ANOVA.

Row | SMILES | TC values ([1]; female NMRI nude mice; monotherapy 100 mg/kg orally, 5 days on and 2 days off; end of treatment; the models with anti-tumor activity; hydrochloride hydrate)) | TC value ([2]; monotherapy 100 mg/kg orally) [%] | TC values ([1]; female NMRI nude mice, monotherapy 100 mg/kg (MTD) orally, 5 days on and 2 days off, end of treatment, all 10 models) [%] | models with anti-tumor activity ([1]; female NMRI nude mice, monotherapy 100 mg/kg orally, 5 days on and 2 days off, out of 10 models) | TC value ([2]; monotherapy 50 mg/kg orally) [%]
1 | CN1CCC(COc2cnc(-c3cccc(Cn4nc(-c5cccc(C#N)c5)ccc4=O)c3)nc2)CC1.Cl.O [3-(1-{3-[5-(1-methyl-piperidin-4-ylmethoxy)-pyrimidin-2-yl]-benzyl}-6-oxo-1,6-dihydro-pyridazin-3-yl)-benzonitrile hydrochloride hydrate] | 43% and 50% | 35 |  |  | 
2 | O=C(NC[C@H](O)CO)c1ccncc1Nc1ccc(I)cc1F [N-((S)-2,3-dihydroxy-propyl)-3-(2-fluoro-4-iodo-phenylamino)-isonicotinamide] |  |  | < 55 | 10 | 42
